{
  "source": "patent US20230106523A1",
  "about": "“QUERCETIN ENHANCEMENT FORMULATION” (SMARTDNA PTY LTD, priority 2020, published 2023)",
  "key": {"[1]": {"assay": "Human trial: blood serum levels of quercetin after ingestion, HPLC-UV", "format": "in vivo", "conditions": "human subject, 80 mg quercetin oral", "protocol": "The concentration of quercetin in the blood of a human subject was measured over four hours following ingestion of: • (a) 80 mg quercetin and 200 ml filtered water, • (b) 80 mg quercetin and 200 ml grapefruit extract.\nThe grapefruit extract consisted of grapefruit juice that was squeezed from the grapefruit with a juicer. The collected juice was freeze-dried and redissolved as a concentrate (4 times) using water for solubilising.\nThe total amount of 6,7-DHB administered in the grapefruit extract in (b) above was estimated to be about 5.9 mg.\nIn both experiments, the quercetin was administered as a powder washed down with filtered water.\nFor the quercetin and grapefruit extract test, the grapefruit extract was taken two hours before the quercetin.\nSerum samples were taken from the subject at 15 minute intervals. The samples were extracted into ethyl acetate and the concentration of quercetin determined using HPLC with UV detection at 315 nm. Carbamazepine was used as an internal standard.\nA linear relationship for the standard curve was achieved over the range of quercetin standards of 2-150 ng/mL (using weighted linear retgression 1/x^2).\nThe lower limit of quantification (LLOQ) for the method was determined to be 2 ng/mL (using FDA guidelines for bio-analytical procedures) and the limit of detection was estimated to be 1 ng/mL."}, "[2]": {"assay": "Rat study: serum quercetin concentration after oral gavage", "format": "in vivo, Sprague-Dawley rats", "conditions": "for concentration of quercetin in the serum from individual rats: one column per rat", "protocol": "Rats were administered: • (a) Quercetin • (b) American Ruby Red grapefruit extract • (c) Quercetin and American Ruby Red grapefruit extract • (d) grapefruit extract • (e) grapefruit extract and quercetin\n5 groups of 8 male Sprague-Dawley rats, aged approximately 14 weeks, weighing 350-400 gm were used in the study. The rats were bred at Hercus-Taeri Resource Unity. All of the rats were healthy and had no medication history.\n1. The quercetin was dissolved in distilled water at 12.0 mg/ml immediately prior to administration.\n2. American Ruby Red grapefruit was cut in half and juice obtained by manual squeezing.\nThe grapefruit extract used was a commercially obtained grapefruit juice.\n3. A known volume of each of the grapefruit juices was lyophilized. Once dry, the residue was resuspended in distilled water to 25% of its original volume. This reduced the volume to be gavaged to each rat in the relevant groups to make the quantities of active agents administered as high as practical.\n4. The quercetin/grapefruit juice formulations were prepared by dissolving the quercetin in the concentrated juices at 12.0 mg/ml.\nGROUP 1. Each animal in this group received quercetin at 15 mg per kg body weight administered by oral gavage.\nGROUP 2. Each animal in this group received the concentrated New Zealand grapefruit juice (American Ruby Red) at 2.5 ml per kg body weight administered by oral gavage.\nGROUP 3. Each animal in this group received quercetin dissolved in the concentrated New\nZealand grapefruit juice (American Ruby Red) administered by oral gavage. The juice was administered so as to provide 15 mg quercetin per kg body weight.\nGROUP 4. Each animal in this group received the concentrated grapefruit juice (prepared by Cedenco Ltd) at 2.5 ml per kg body weight administered by oral gavage.\nGROUP 5. Each animal in this group received quercetin dissolved in the concentrated grapefruit juice (prepared by Cedenco Ltd) at 2.5 ml per kg body weight administered by oral gavage. The quercetin was dissolved so that it was administered at 15 mg per kg body weight.\n1. A 0.5 ml time zero blood sample was taken from each animal from the lateral saphenous vein. The animals were anaesthetized using Halothane in oxygen (3.5% for knockdown, 2.5 to 3.0% for maintenance). The vein was cannulated. The zero-time blood sample was taken from each group of rats the day before the animals were gavaged. Following the collection of the blood sample, a 0.5 ml aliquot of sterile normal saline was given by intraperitoneal (IP) injection.\n2. The test sample was prepared freshly immediately prior to the gavaging of each group of rats. Each animal was weighed and the volume of the test sample to be administered calculated.\n3. Each rat was gavaged using proprietary gavaging needles (Popper). Once gavaging was complete the animals were left for 10 minutes before being anaesthetized using Halothane in oxygen (3.5% for knockdown, 2.5 to 3.0% for maintenance).\n4. […] After each collection an equal volume of sterile saline was administered to each animal via an IP injection. The blood samples were immediately transferred to serum separating microtainer tubes (Becton Dickinson Cat. No 365956) and left to clot for 30 minutes at room temperature. The tubes were centrifuged at 3000 rpm for 10 minutes in a Beckman J6 centrifuge with a swing-out rotor. The sera were pipetted off and transferred into Eppendorf tubes/cryovials which were stored at −80° C.\nThe sera samples were sent to the Institute of Environmental Science and Research (ESR) (Kenepuru, Wellington, New Zealand) for quantitation of the concentration of quercetin in each. The detection limit for quercetin in serum was 5 ng/ml."}, "[3]": {"conditions": "cited from earlier work"}, "[4]": {"conditions": "cited from earlier work", "remark": "listed apart in the source"}},
  "note": "“And” between values parts separate entries of the source, which are not always exact repeats. Equal entries are not always repeated.",
  "data": [
    {"smiles": "O=c1c(O)c(-c2ccc(O)c(O)c2)oc2cc(O)cc(O)c12", "note": "[Quercetin, 2-(3,4-dihydroxyphenyl)-3,5,7-trihydroxy-4H-chromen-4-one]", "values": [
      {"measurement": "concentration at 0 min", "setting": "[1]; time 0 min", "value": 0, "unit": "ng/mL"},
      {"measurement": "concentration at 15 min", "setting": "[1]; time 15 min", "value": 1, "unit": "ng/mL"},
      {"measurement": "concentration at 30 min", "setting": "[1]; time 30 min", "value": 2.3, "unit": "ng/mL"},
      {"measurement": "concentration at 45 min", "setting": "[1]; time 45 min", "value": 3.8, "unit": "ng/mL"},
      {"measurement": "concentration at 60 min", "setting": "[1]; time 60 min", "value": 3.1, "unit": "ng/mL"},
      {"measurement": "concentration at 75 min", "setting": "[1]; time 75 min", "value": 1, "unit": "ng/mL"},
      {"measurement": "concentration at 90 min", "setting": "[1]; time 90 min", "value": 0, "unit": "ng/mL"},
      {"measurement": "concentration at 105 min", "setting": "[1]; time 105 min", "value": 0, "unit": "ng/mL"},
      {"measurement": "concentration at 120 min", "setting": "[1]; time 120 min", "value": 0, "unit": "ng/mL"},
      {"measurement": "concentration at 135 min", "setting": "[1]; time 135 min", "value": 0, "unit": "ng/mL"},
      {"measurement": "concentration at 150 min", "setting": "[1]; time 150 min", "value": 0, "unit": "ng/mL"},
      {"measurement": "concentration at 165 min", "setting": "[1]; time 165 min", "value": 0, "unit": "ng/mL"},
      {"measurement": "concentration at 180 min", "setting": "[1]; time 180 min", "value": 0, "unit": "ng/mL"},
      {"measurement": "concentration at 195 min", "setting": "[1]; time 195 min", "value": 0, "unit": "ng/mL"},
      {"measurement": "concentration at 210 min", "setting": "[1]; time 210 min", "value": 0, "unit": "ng/mL"},
      {"measurement": "concentration at 225 min", "setting": "[1]; time 225 min", "value": 0, "unit": "ng/mL"},
      {"measurement": "concentration at 240 min", "setting": "[1]; time 240 min", "value": 0, "unit": "ng/mL"},
      {"measurement": "concentration of quercetin in the serum from individual rats", "setting": "[2]; 0 min (sample taken the day before gavage)", "value": 0},
      {"measurement": "concentration of quercetin in the serum from individual rats", "setting": "[2]; 30 min after oral gavage, quercetin 15 mg/kg and/or concentrated juice 2.5 ml/kg", "value": 0},
      {"measurement": "rats (of eight) showing quercetin in the serum", "setting": "[2]; 30 minutes after administration", "value": "none was detected in any of the animals"},
      {"measurement": "concentration of quercetin in the serum from individual rats", "setting": "[2]; 60 min after oral gavage, quercetin 15 mg/kg and/or concentrated juice 2.5 ml/kg, listed as Quercetin alone", "value": "0 (7×) and 2"},
      {"measurement": "concentration of quercetin in the serum from individual rats", "setting": "[2]; 90 min after oral gavage, quercetin 15 mg/kg and/or concentrated juice 2.5 ml/kg, listed as Quercetin alone", "value": "0 (7×) and 2"},
      {"measurement": "concentration of quercetin in the serum from individual rats", "setting": "[2]; 120 min after oral gavage, quercetin 15 mg/kg and/or concentrated juice 2.5 ml/kg, listed as Quercetin alone", "value": "0 (7×) and 2"},
      {"measurement": "bioavailability of active quercetin (duration)", "setting": "[3]; human studies (Graefe 1999)", "value": "no more than 10 minutes"},
      {"measurement": "elimination half-life", "setting": "[3]; humans, after ingesting quercetin foods or supplements", "value": "1 to 2", "unit": "h"},
      {"measurement": "bioavailability of quercetin in humans", "setting": "[3]; humans", "value": "0-50%"},
      {"measurement": "water solubility", "setting": "[4]", "value": "low"}
    ]}
  ]
}
